The values below are quoted from earlier work in patent US20160271257A1, “Low Molecular Weight Immune-Modulators As Adjuvants for Specific Immunotherapy” (PLS-DESIGN GMBH, priority 2013, published 2016).

Converted amounts (≈) assume the structure as drawn. “Also recorded” adds a separate entry of the source. Where two headings read alike, the source gives them in different places. Ends that are not written are not given here.

As usually defined, the half-life is the time needed for the level to fall by half in the phase considered.

The conditions of data set [1]: 10 ng with 100 μg OVA.
The conditions of data set [2]: individuals not adhering to dietary calcium restriction.
For data set [3] the following is noted: i.p. 5 μg/kg every 2 days.
For data set [4] the following is noted: mouse, in vivo.
Experiment in data set [5]: not given
The source holds these as a separate data set.

Experiment in data set [6]: not given
The source holds these as a separate data set.

The subject of the next data set is NF-kappa B translocation. The settings on record: read-out: concentration for 50% inhibition of NF-kappa B translocation.
The test system of data set [7] is isolated rat cardiomyocytes. As to conditions: for glutathione repletion and unmasking of TNFR2-mediated effects (reproducing in vivo NAC treatment): incubation 2-3 hours, 50 μmol/L GSM, 50 μmol/L NAC or 10 mmol/L GSH; for protection against the deleterious effects of TNF-alpha on contraction: preincubation 2-3 hours, exogenously added, 50 μM GSM.
Experiment in data set [8]: not given
This is another data set of the same source.

The conditions of data set [9]: oral 1800 mg/day added to standard therapy.
The conditions of data set [10]: in most of the subjects.
The conditions of data set [11]: 600 mg to 1000 mg three times daily, 4 weeks.
For data set [12] the following is noted: 8 days.
The conditions of data set [13]: 3-day NAC 120 mg/kg/day, 2-month post-myocardial infarction rats.
The conditions of data set [14]: 2 μg/day, 3 months.
The conditions of data set [15]: for time detectable in serum by HPLC: rats.
For data set [16] the following is noted: topical, used clinically for years.
For data set [17] the following is noted: topical pretreatment.
For data set [18] the following is noted: six months, budesonide 800 μg/d and cholecalciferol 500 IU.
For data set [19], the system named is C3. As to conditions: sera from cynomolgus monkeys; read-out: IC50 of haemolytic activity.
The test system of data set [20] is C3. As to conditions: 10 mg/kg i.v. bolus then 60 μg/kg/min infusion.
Data set [21] has as its system C3 proteins from lower mammalian species, C4 and C5.
The conditions of data set [22]: in vivo.
For data set [23], the system named is TNFR1-mediated activation of NF-kappa B.
The conditions of data set [24]: in vivo. This is another data set of the same source.
The next data set addresses T1, CD3 (Homo sapiens, UniProt P07766).
T1 construct: endogenous in cells; host or cells: T cells of type 1 diabetes patients (clinical studies reported in the literature)
As to conditions: in vivo.

Experiment in data set [25]: not given
This is another data set of the same source.

Experiment in data set [26]: not given
This is another data set of the same source.

Setting [27] is: oral 4,000-40,000 IU/day, 28 weeks.

T1 sequence (P07766 23-207): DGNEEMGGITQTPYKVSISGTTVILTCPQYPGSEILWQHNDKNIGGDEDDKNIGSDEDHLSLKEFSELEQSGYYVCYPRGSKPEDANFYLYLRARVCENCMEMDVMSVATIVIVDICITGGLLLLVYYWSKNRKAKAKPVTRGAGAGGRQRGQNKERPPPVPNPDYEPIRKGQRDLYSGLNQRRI
T1 sequence (P04234 22-171 partner): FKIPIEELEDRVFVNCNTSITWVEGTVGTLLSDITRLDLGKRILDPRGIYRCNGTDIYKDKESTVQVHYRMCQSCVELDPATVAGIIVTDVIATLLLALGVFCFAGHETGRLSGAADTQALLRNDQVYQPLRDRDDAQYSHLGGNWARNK
T1 sequence (P09693 23-182 partner): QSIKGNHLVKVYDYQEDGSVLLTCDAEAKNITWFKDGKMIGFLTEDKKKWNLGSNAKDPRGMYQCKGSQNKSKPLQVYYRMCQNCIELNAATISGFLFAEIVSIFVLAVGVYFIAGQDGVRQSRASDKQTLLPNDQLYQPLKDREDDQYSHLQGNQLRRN
T1 sequence (P20963 22-164 partner): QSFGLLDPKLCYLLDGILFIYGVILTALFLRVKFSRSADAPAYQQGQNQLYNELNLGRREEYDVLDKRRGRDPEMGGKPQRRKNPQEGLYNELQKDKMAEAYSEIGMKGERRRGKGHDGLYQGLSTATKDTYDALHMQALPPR

For `C=C1/C(=C\C=C2/CCC[C@]3(C)[C@@H]([C@H](C)CCCC(C)(C)O)CC[C@@H]23)C[C@@H](O)C[C@@H]1O` [1,25-(OH)2D3, 1α,25-dihydroxyvitamin D3], in [1], the airway hyper-responsiveness entry is listed as “significantly inhibited” and the “serum OVA-specific IgE levels” value is given as “potentiated the reduction; also recorded: significant reduction”. Besides, the adverse effect reported result in [2] was “hypercalcaemia; also recorded: hypercalcemia”. Moreover, the “treated mice in which appearance of paralysis was prevented” value in [3] was 70%. Also, in [4], the “development / onset of diabetes” value is on record as “prevented”. In addition, the “progression of arthritis and hypercalcemia” value (diet, 20 ng/mouse/day) is reported as “effective in inhibiting the progression of arthritis without producing hypercalcemia”. For the same compound, for the setting “dietary supplementation”, the “symptoms of Lyme arthritis (B. burgdorferi infection)” value is reported as “minimized or prevented” and the “symptoms of collagen-induced arthritis” value is “prevented”.

In the case of `C=C1CC[C@H](O)C/C1=C/C=C1\CCC[C@]2(C)[C@@H]([C@H](C)CCCC(C)(C)O)CC[C@@H]12` [25-OH-D3, 25-hydroxyvitamin D3], the adverse effects entry in data set [5] (1,000 to 40,000 IU/day) was “no adverse effects”. Moreover, in data set [5] (setting [27]), the “disease progression and relapse activity” value is “not affected”; the “number of new lesions assessed by MRI” value was “significant decrease”. Moreover, in [6] (based on experiments in the rat), the “serum levels of 25-OH-D3 to be kept below to avoid toxicity” value is recorded as “below 250 ng/ml”. Also, the “serum levels of 25-OH-D3 at which toxicity occurs” value in data set [6] (rat, in vivo) is at least 500 ng/mL.

For the compound `CC(=O)Oc1ccccc1C(=O)O` [ASA, acetylsalicylic acid], the IC50 in the data set with NF-kappa B translocation was around 3000 µM.

Consider `N[C@@H](CCC(=O)N[C@@H](CS)C(=O)NCC(=O)O)C(=O)O` [GSH, glutathione], for which the “glutathione repletion and unmasking of TNFR2-mediated effects (reproducing in vivo NAC treatment)” value (“glutathione repletion and unmasking” for short) in data set [7] is “could not reproduce”.

Turning to `CSC[C@H](NC(=O)CC[C@H](N)C(=O)O)C(=O)NCC(=O)O` [GSM, S-methylglutathione], in data set [7], the “glutathione repletion and unmasking” value is on record as “achieved”; the “protection against the deleterious effects of TNF-alpha on contraction” value is “protected”. Besides, the solubility in water in data set [8] was 8.1 mM (≈ 2600 µg/mL).

As for `CC(=O)N[C@@H](CS)C(=O)O` [NAC, N-acetyl-L-cysteine], the “cytotoxicity to resting T cells” value with peripheral blood T cells (1 mM to 20 mM, 3 days, seven donors) was “nontoxic”. The “effect on T cell function and growth” value in the data set with peripheral blood T cells (10 mM) is “effective enhancer of T cell function and enhancer of growth”. In data set [7], the “glutathione repletion and unmasking” value was “could not reproduce”; the “protection against the deleterious effects of TNF-alpha on contraction” value is reported as “not protected”. Moreover, the “primary end points including vital capacity” value in data set [9] is reported as “better”. Further, in data set [10], the highest non-toxic dose is reported as 800 mg/m^2/day. Moreover, the “safety and effect on blood neutrophil GSH, airway neutrophil count and elastase activity” value in [11] is “safe and effective”. Also, the “decrease of ovalbumin-specific IgE and IgG1” value in data set [12] (0.5 g/liter in drinking water) is around 30%. Besides, the “decrease of ovalbumin-specific IgE and IgG1 responses” value in [12] (1.0 g/liter in drinking water) is recorded as “more than 70%”. Also, the “GSH content of the left ventricle, % of control level in sham rats” value in data set [13] is on record as 75%.

`C=C1/C(=C\C=C2/CCC[C@]3(C)[C@@H]([C@H](C)CCCC(C)C)CC[C@@H]23)C[C@@H](O)C[C@@H]1O` [alfacalcidiol]: in [14], the “patients going into remission” value is recorded as 45% and the “patients with improvement of disease activity” value was 89%.

Turning to `C=C1/C(=C\C=C2/CCC[C@]3(C)[C@@H]([C@H](C)/C=C/[C@@H](O)C4CC4)CC[C@@H]23)C[C@@H](O)C[C@@H]1O` [calcipotriol], in data set [15] (i.v. 10 μg/kg), the “time detectable in serum by HPLC” value is “up to 5 min”. Also, the “time detectable in serum by HPLC” value in data set [15] (i.v. 50 μg/kg) is “up to 10 min”. Further, in data set [15] (rat, in vivo), the half-life in circulation result is given as “short; also recorded: very short” and the “rate of clearance, times higher than for 1,25-(OH)2D3” value is given as “approximately 140 times”. Also, the solubility in ethanol entry in data set [8] is “approx. 50 mg/ml”. The “solubility in a 1:5 solution of ethanol:PBS, pH 7.2” value in data set [8] (pH 7.2) is recorded as “approx. 0.15 mg/ml”. Also, the systemic toxicity result in data set [16] is “without systemic toxicity”. Moreover, the “times less effect on calcium metabolism compared to 1,25-(OH)2D3” value with calcium metabolism (activation of calcium absorption and bone calcium mobilization) is on record as 100-200 times. Moreover, in the data set on calcium metabolism (in vivo), the “effects of the metabolites, times weaker than those of the parent compound” value is recorded as 100 times. For the same compound, in data set [17], the “CD4+CD25+ Tregs” value was “induced” and the “antigen-specific CD8+ T cell priming” value is “abolished”.

Consider `C=C1CC[C@H](O)C/C1=C/C=C1\CCC[C@]2(C)[C@@H]([C@H](C)CCCC(C)C)CC[C@@H]12` [cholecalciferol], for which, in data set [18], the “children who experienced asthma exacerbation” value was 17%.

On to `CC[C@H](C)[C@H](N)C(=O)N[C@H]1CSSC[C@@H](C(=O)N[C@H](C(N)=O)[C@@H](C)O)NC(=O)[C@H](CCCN=C(N)N)NC(=O)[C@H](Cc2cnc[nH]2)NC(=O)[C@H](Cc2cnc[nH]2)NC(=O)CNC(=O)[C@H](Cc2c[nH]c3ccccc23)NC(=O)[C@H](CC(=O)O)NC(=O)[C@H](CCC(N)=O)NC(=O)[C@H](C(C)C)NC(=O)[C@H](C(C)C)NC1=O` [compstatin], for which the IC50 in the data set on C3 [19] is […]. Moreover, in the data set with C3 [20], the “effect in sepsis model” value was “decrease the procoagulant response and to confer organ protection”. The “binding to C3 from lower mammalian species or to C4 and C5” value in data set [21] is on record as “does not bind”.

Take `O=C(O)c1ccccc1O` [salicylate]: the “levels at which tinnitus may occasionally occur” value in data set [22] was at least 95000 ng/mL.

For `O=C(O)c1ccccc1O` [salicylic acid], in data set [8], the “solubility in ethanol/water (10:90 vol)” value is 21 mM (≈ 2900 µg/mL), the “solubility in ethanol/water (20:80 vol)” value was 35 mM (≈ 4830 µg/mL), the “solubility in ethanol/water (30:70 vol)” value is reported as 81 mM (≈ 11200 µg/mL) and the “solubility in ethanol/water (40:60 vol)” value is on record as 277 mM (≈ 38300 µg/mL). In addition, in [8], the “solubility in ethanol/water (50:50 vol)” value is 526 mM (≈ 72700 µg/mL). The solubility in water in data set [8] (salicylic acid) was 14 mM (≈ 1930 µg/mL).

On to `O=C([O-])c1ccccc1O.[Na+]` [sodium salicylate], for which, in [23], the “dose required for inhibition of TNFR1-mediated activation of NF-kappa B” value is 10 to 20 mM.

As to Ac-Phe-[Orn-Pro-DCha-Trp-Arg] [PMX53], in data set [24], the half-life is 1.17 h.

Consider Otelixizumab: Fc-mutated anti CD3 mAb, for which, in the data set with CD3, the “clinical efficacy in phase III studies” value is on record as “failed to show clinical efficacy”.

On to “R121D/Y124D: human IL-4 double mutant antagonizing IL-4 and IL-13”, for which the “cutaneous wheal response and circulating allergen-specific IgE” value with IL-4 and IL-13 (subcutaneous, 6 weeks or more) is on record as “reduced”. Also, the allergen-induced airways hyper-responsiveness entry in the data set with IL-4 and IL-13 (subcutaneously or via nebulisation) is reported as “protect”.

TFGLQLELT [nonapeptide 180-188]: the “rats showing clinical symptoms of adjuvant arthritis during pretreatment period” value in data set [25] (i.p. 100 μg in FIA) is “none of the rats”. The “rats completely protected against subsequently induced adjuvant arthritis” value in data set [25] (three times 100 μg in FIA) is listed as 11 out of 16.

On to “Teplizumab: humanized anti CD3 mAb mutated to prevent binding to Fc receptors”, for which the “clinical efficacy in phase III studies” value with CD3 is listed as “failed to show clinical efficacy”.

Consider vitamin D, for which the “relative risk of type 1 diabetes over the subsequent 30 years” value in data set [26] (doses of exactly 50 μg/day) was 0.22; in data set [26] (regular, doses of over 50 μg/day (2000 IU/d)), 0.14. Further, the “relative risk of developing type 1 diabetes” value in data set [26] (supplements given irregularly) is on record as 0.16; in data set [26] (supplements given regularly), 0.12.
